From patent US20230407243A1, “GENETIC PLATFORM TO INVESTIGATE THE FUNCTIONS OF BACTERIAL DRUG EFFLUX PUMPS” (priority 2022, published 2023)
Values after ≈ are worked out from the molar mass of the structure shown. Where two headings read alike, the source gives them in different places.

Columns and labels:
Format in all cases: cell-based, Escherichia coli
[1] = system: E. coli EKO-35; experiment: microbe, parasite or virus in culture; settings: for Fold change of MICs: EKO-35 compared to EKO-35 (reference); for Minimum inhibitory concentration (MIC), EKO-35: Table 10, without pore; for Minimum inhibitory concentration (MIC), EKO-35 / Minimum Inhibitory Concentration, EKO-35: technical duplicate; for Minimum Inhibitory Concentration, EKO-35: Table 13A, non-porinated; for MIC: Escherichia coli
Procedure, shortened: (§1)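 LB o/n 37 °C → PBS pH 7.4, OD600 ~1.0 → 1/2000 in MHB II; 2-fold cmpd series, duplicate, DMSO ctrl; 18 h 37 °C, 900 rpm; OD600 post minus pre.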

[2] = system: E. coli ΔtolC; experiment: microbe, parasite or virus in culture; settings: for Minimum inhibitory concentration (MIC), ΔtolC: Table 10, without pore; for Minimum inhibitory concentration (MIC), ΔtolC / Minimum Inhibitory Concentration, ΔtolC: technical duplicate; for Minimum Inhibitory Concentration, ΔtolC: Table 13A, non-porinated
Procedure, shortened: as §1

[3] = system: wild-type E. coli K-12 str. BW25113; experiment: microbe, parasite or virus in culture; settings: for Minimum inhibitory concentration (MIC), K-12: Table 10, without pore; for Minimum inhibitory concentration (MIC), K-12 / Minimum Inhibitory Concentration, K-12: technical duplicate; for Minimum Inhibitory Concentration, K-12: Table 13A, non-porinated; for MIC: Escherichia coli
Procedure, shortened: as §1

[4] = system: EKO-35 araC::emrKY Pore; experiment: MIC susceptibility profiling, porinated efflux platform; settings: for Fold changes of MICs: EKO-35 araC::emrKY Pore compared to EKO-35-Pore; for Minimum inhibitory concentration: EKO-35 araC::emrKY Pore, technical duplicate
Procedure, shortened: (§2)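 MIC values come from background-corrected OD600 readings (pre-incubation OD subtracted) after 18 h at 37 °C and 900 rpm in MHB II. Compounds were tested in duplicate as 2-fold dilutions. The inoculum came from 18 h LB cultures adjusted to OD600 ~1.0 and diluted 1/2000, and the pore-bearing strains were vancomycin-checked beforehand.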

[5] = system: EKO-35 araC::macAB Pore; experiment: as above; settings: for Fold changes of MICs: EKO-35 araC::macAB Pore compared to EKO-35-Pore; for Minimum inhibitory concentration: EKO-35 araC::macAB Pore, technical duplicate
Procedure, shortened: as §2

[6] = system: EKO-35 araC::mdtBC Pore; experiment: as above; settings: for Fold changes of MICs: EKO-35 araC::mdtBC Pore compared to EKO-35-Pore; for Minimum inhibitory concentration: EKO-35 araC::mdtBC Pore, technical duplicate
Procedure, shortened: as §2

[7] = system: EKO-35 araC::mdtEF Pore; experiment: as above; settings: for Fold changes of MICs: EKO-35 araC::mdtEF Pore compared to EKO-35-Pore; for Minimum inhibitory concentration, EKO-35 araC::mdtEF Pore: Table 14A, porinated, technical duplicate
Procedure, shortened: as §2

[8] = system: EKO-35 araC::mexCD Pore; experiment: as above; settings: for Fold changes of MICs: EKO-35 araC::mexCD Pore compared to EKO-35-Pore; for Minimum inhibitory concentration: EKO-35 araC::mexCD Pore, technical duplicate
Procedure, shortened: as §2

[9] = system: EKO-35 (empty pCA24N); experiment: microbe, parasite or virus in culture; settings: for MIC, EKO-35 (empty pCA24N), Chlor + / MIC, EKO-35 (empty pCA24N), Chlor −: 0.1 mM IPTG; for MIC, EKO-35 (empty pCA24N), Chlor +: 4 μg/mL chloramphenicol selection; for MIC, EKO-35 (empty pCA24N), Chlor −: no plasmid selection

SMILES | Fold change of MICs [1] [fold] | Minimum inhibitory concentration (MIC), EKO-35 [1] [µg/mL] | Minimum Inhibitory Concentration, EKO-35 [1] [µg/mL] | Minimum inhibitory concentration (MIC), ΔtolC [2] [µg/mL] | Minimum Inhibitory Concentration, ΔtolC [2] [µg/mL] | Minimum inhibitory concentration (MIC), K-12 [3] [µg/mL] | Minimum Inhibitory Concentration, K-12 [3] [µg/mL] | Fold changes of MICs [4] [fold] | Minimum inhibitory concentration [4] [µg/mL] | Fold changes of MICs [5] [fold] | Minimum inhibitory concentration [5] [µg/mL] | Fold changes of MICs [6] [fold] | Minimum inhibitory concentration [6] [µg/mL] | Fold changes of MICs [7] [fold] | Minimum inhibitory concentration, EKO-35 araC::mdtEF Pore [7] [µg/mL] | Fold changes of MICs [8] [fold] | Minimum inhibitory concentration [8] [µg/mL] | MIC, EKO-35 (empty pCA24N), Chlor + [9] [μg/mL] | MIC, EKO-35 (empty pCA24N), Chlor − [9] [μg/mL] | also measured
Cn1cc(Br)c(-c2cccc(NC(=O)Nc3ccc(OC(F)(F)F)cc3)c2)n1 [compound 14] | 1 | 320 | 320 | 2.5 | 2.5 | 320 | 320 | 1 | 320 | 1 | 320 | 1 | 320 | 1 | 320 | 1 | 320 | >5 | >5 | 
COc1cc(Cc2cnc(N)nc2N)cc(OC)c1OC [trimethoprim] | 1 |  |  | 0.098 |  |  |  | 2 |  | 1 |  | 1 |  | 2 |  | 1 |  |  |  | MIC ([1]; EKO35, read-out: Minimum Inhibitory Concentration, EKO-35): 0.195 µg/mL; MIC ([1]; EKO35, read-out: Minimum inhibitory concentration (MIC), EKO-35): 0.195 µg/mL; MIC ([2]; Escherichia coli, 18 h, read-out: Minimum Inhibitory Concentration, ΔtolC): 0.098 µg/mL; MIC ([3]; BW25113, read-out: Minimum Inhibitory Concentration, K-12): 0.391 µg/mL; MIC ([3]; BW25113, read-out: Minimum inhibitory concentration (MIC), K-12): 0.391 µg/mL; MIC ([9]; Escherichia coli): 0.391 µg/mL (≈ 1.35 µM)
N#Cc1ccc(-c2c(NC(=O)C(Cl)Cl)oc(-c3cccs3)c2C#N)cc1 [compound 2] | 1 | 320 | 320 | 1.25 | 1.25 | 320 | 320 | 1 | 320 | 1 | 320 | 1 | 320 | 1 | 320 | 1 | 320 | >5 | >5 | 
